Laboratory results: patent publication US20220378763A1, “COMPOUND FOR TREATMENT OF ACUTE INFLAMMATION IN THE MYOCARDIUM” (CALPROTECT AB, priority 2019, published 2022)

Tests used:
[1] = tested on: C57BL/6 mice with MI induced by permanent coronary artery ligation; experiment: Quantitative PCR of whole heart tissue 3 days post-MI; assay type: in vivo, mouse
Method: Total RNA was isolated from whole heart tissue using the TRI Reagent™ Solution (Invitrogen) according to the manufacturer's instructions. cDNA was generated from 2 μg of total RNA per sample using the High Capacity RNA to cDNA™ Kit (Applied Biosystems™). Quantitative real-time TaqMan PCR was performed using the following TaqMan primers (Applied Biosystems): Il-1b (Mm00434228_m1), Arg-1 (Mm00475988_m1), Ym-1 (Mm00657889_mH), Cc/5 (Mm01302427_m1), Tnf-α (Mm00443258_m1), Il-12 (Mm01288989_m1), IFN-γ (Mm01168134_m1), Il-10 (Mm00439614_m1), TGF-β (Mm01178820_m1), Il-4 (Mm00445259_m1) and housekeeping gene Hypoxantine-guanine phosphoribosyltransferase (HPRT) (Mm01324427_m1). Quantitative PCR was run on a ViiA7 Real-Time PCR System (Applied Biosystems) and data were quantified with the 2^−ΔCt method.
In order to assess the effects of the treatment on the post-MI cardiac environment, we performed qPCR analysis of mRNA encoding for proteins involved in myocardial inflammation and repair. The analysis was done in whole heart tissue collected at 3 days post-MI from mice receiving ABR-238901 or PBS (n=5 mice per group). […] The expression of IL-1β, TNFα, IL-10 and TGFβ was not affected at this stage (FIG. 3C, D, H). […] As neutrophils are the main producers of S100A8/A9, this effect is in line with the blunted local and systemic neutrophil response to MI observed in ABR-238901-treated mice (FIG. 2A, H).

[2] = target: T1, S100A9 binding to RAGE (Homo sapiens, UniProt P06702); experiment: Surface plasmon resonance (Biacore 3000): inhibition of S100A9 binding to immobilized RAGE; settings: 50 nM recombinant human S100A9 over immobilized RAGE; response at late dissociation phase
T1 sequence (P06702 1-114): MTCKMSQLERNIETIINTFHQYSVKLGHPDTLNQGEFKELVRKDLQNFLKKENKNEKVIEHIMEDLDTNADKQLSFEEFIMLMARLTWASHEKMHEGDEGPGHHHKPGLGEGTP
From the text: (§1) (a) The molecular structure of ABR-238901. (b-c) Surface plasmon resonance measurement of S100A9 binding to immobilized RAGE (b) and TLR4 (c) in the presence of increasing ABR-238901 concentrations. The magnitude of the response for each ABR-238901 concentration (BABR-238901), measured at the late dissociation phase (t 350s), was expressed as percentage of the response in the absence of competitor (BO), and plotted against the concentration of ABR-238901.
(§2) Inhibition of S100A9 binding to RAGE and TLR4/MD2 by ABR-238901 was tested by surface plasmon resonance in a Biacore 3000 system (GE Healthcare, Uppsala, Sweden). Briefly, 50 nM of recombinant human S100A9 was injected over immobilized RAGE and TLR4 (2 min at 30 μL/min) in the presence of increasing concentrations of ABR-238901, ranging from 0.0488 to 100 μM. The magnitude of the responses measured at the late dissociation phase (t 350 s) in the presence of ABR-238901 (BABR-238901) were expressed as percentage of response in the absence of competitor (Bo), and plotted against the concentration of ABR-238901 (FIG. 7b-c). The curves were fit to a sigmoidal dose-response model with variable slope in Prism GraphPad for calculation of IC50.

[3] = tested on: C57BL/6 mice with MI induced by permanent coronary artery ligation; experiment: S100A8/A9 in plasma (ELISA) and myocardium (immunohistochemistry) 3 days post-MI; assay type: in vivo, mouse
Method: Subsequently the hearts were fixed in 4% (w/v) paraformaldehyde and embedded in paraffin. The hearts were sectioned transversely from the apex to the level of the suture, and 6 μm thick sections were collected at 390 μm intervals. The sections were mounted on glass slides and stained with Van Gieson or Masson trichrome stain for quantitative analysis of scar size. Alarmin S100A8/A9 was detected using mouse anti-S100A8/A9 IgG1 antibody (Abcam, ab 130234, 1:100 dilution, O/N 4° C.). Goat anti-mouse IgG1 HRP-conjugated secondary antibody (Abcam, ab 97240, 1 h RT) was used and the staining was developed with ImmPACT™ DAB (Vector, SK-4105) chromogen as substrate. The slides were subsequently scanned using an Aperio digital pathology slide scanner (Leica Biosystems), and images were captured with the ImageScope software (Leica Biosystems). Left ventricle area and the infarcted area were measured on each section by using the BioPix iQ 2.5.0 software (Biopix AB). The size of the post-MI myocardial scar was expressed as percentage of the left ventricle volume below the coronary ligature.
Plasma levels of S100A8/A9 heterodimer was measured by DuoSet®ELISA (R&D Systems, DY8596-05), according to manufacturer instructions. All the samples were diluted 1:100 prior to analysis. Biotinylated goat anti-mouse S100A8/A9 antibody was used as […] antibody and streptavidin-HRP was used for detection. […]

[4] = tested on: C57BL/6 mice with sepsis induced by bacterial lipopolysaccharide; experiment: LPS-induced sepsis: mortality over 7 days; assay type: in vivo, mouse; settings: 30 mg/kg i.p. at 0 and 6 h after LPS; 7-day period
Method: General animal care, induction of sepsis and treatments were performed as described under Example 7. We initially included a total of 10 mice per treatment group, pooled from two independent experiments. To assess mortality after induction of sepsis, the mice were monitored at least three times a day for 7 days. […] The final group size was n=9 mice in the ABR-238901-treated group, and n=10 in the PBS-treated group. The experimental layout is outlined in FIG. 14A. Mice showing clinical signs of terminal illness that fulfilled the pre-specified termination points specified in the ethical permit awarded by the Lund University Ethics Committee were euthanized. Weight loss more than 20% is not considered a clinical sign of terminal illness, but was defined by the Ethical Committee as an experiment termination criterion.

[5] = target: T2, S100A9 binding to TLR4/MD2 (Homo sapiens, UniProt P06702); experiment: Surface plasmon resonance (Biacore 3000): inhibition of S100A9 binding to immobilized TLR4; settings: 50 nM recombinant human S100A9 over immobilized TLR4; response at late dissociation phase
T2 sequence (P06702 1-114): T1 sequence (P06702 1-114)
From the text: as §1, §2

COc1ncc(S(=O)(=O)Nc2cncc(Cl)c2O)cc1Br [ABR-238901, 5-bromo-N-(5-chloro-4-hydroxypyridin-3-yl)-6-methoxypyridine-3-sulfonamide]
Gene expression of the chemokine CCL5/RANTES in heart [1]: inhibited | IL-1β expression in heart [1]: not affected | IL-10 expression in heart [1]: not affected | TGFβ expression in heart [1]: not affected | TNFα expression in heart [1]: not affected | Arg-1 mRNA expression in heart ([1]; vs MI controls): enhanced | IFN-γ mRNA expression in heart ([1]; vs MI controls): inhibited | IL-4 mRNA expression in heart ([1]; vs MI controls): enhanced | IL-12 mRNA expression in heart ([1]; vs MI controls): inhibited | Ym-1 mRNA expression in heart ([1]; vs MI controls): enhanced | IC50 [2]: 2700 nM | Plasma levels of S100A8/A9 ([3]; ELISA): reduced | S100A8/A9 presence in the infarcted myocardium ([3]; immunohistochemical staining): reduced | Animal survival [4]: 100% | IC50 [5]: 2100 nM
